Tests used:
[1] = system: Cucumber brown spot (strain SDHGHB060509); assay: In vivo micro-screening assay
Source text: 3. In Vivo Micro-Screening Assay

guinea pig skin = assay: Skin sensitization test; format: in vivo
Method: (§1) The toxicological indexes of the compound were tested following the standard GB15670-1995 “Toxicological test methods of pesticides for registration” by Tongji Medical College, Huazhong University of Science and Technology.

[2] = system: Cucumber gray mold (SC504002); assay: In vivo micro-screening assay
Method: (§6) To further study the fungicidal spectrum of the compound of Formula (I), indoor in vivo micro-screening assay were carried out on cucumber gray mold, cucumber scab, cucumber sclerotinia rot, cucumber brown spot, pepper phytophthora blight, and rice sheath blight.
(§7) Medicament to be tested and medicament of control groups were prepared as needed in a sunny morning. Cucumber gray mold, cucumber scab, cucumber brown spot, cucumber sclerotinia rot, and rice sheath blight were medicated by spray, and after air dry, pathogens of cucumber scab and of cucumber brown spot were inoculated through spraying spore suspension respectively, pathogens of cucumber gray mold, of cucumber sclerotinia rot, and of rice sheath blight were inoculated through lawn foliage. Pepper phytophthora blight was medicated and inoculated by root-irrigation. Subsequently, all seedlings were cultured in wet environment.
(§8) After the disease of control groups were serious, spot area, disease index, and the diseased seedling rate were investigated to calculate the efficacy. Cucumber scab, cucumber brown spot, and pepper phytophthora blight were investigated by grading method. The spot extension area of cucumber gray mold and of rice sheath blight was investigated. The diseased seedling rate of cucumber sclerotinia rot was investigated. Disease index=Σ(amount of infected diseased leaves in a grade×relative value of the grade)×100/(total amount of leaves×9); Diseased seedling rate (%)=(total amount of seedlings−amount of diseased seedlings)/total amount of seedlings×100% Prevention and treatment effect (%)=(disease of control group−disease of experiment group)/disease of control group×100%

Aspergillus = assay: In vitro inhibition, pathogens from tropical plants; format: cell-based
Method: (§2) 5 wt % formulation of the active compound of Formula (I) was prepared into a solution (300 mg/L). To a sterilized Erlenmeyer flask, 2 mL of the solution and 18 mL of PDA culture medium (50° C.) were added. The mixture was shaken uniformly and dumped into two dishes whose diameter was 9 cm to yield two toxic PDA culture mediums having a concentration of 30 mg/L. Various cultured pathogens were punched at the edge of colony by a puncher having a diameter of 5 mm respectively, and the obtained pieces were transferred to the center of the toxic PDA culture medium by an inoculating needle and cultured in an incubator at 25° C. Repeat the above steps. According to the growth status of CK colony, the colony diameter of pathogens was measured by crossing method with a caliper and thereby a corrected inhibition percentage was calculated.
(§3) For each colony, diameter was measured twice by crossing method and the average was practicable. The colony growth inhibition rate was calculated as follows: Colony growth inhibition rate %=(diameter of CK colony−diameter of target colony)×100/diameter of CK colony
(§4) Following the above method, as targets 17 pathogens originated from tropical plants were tested. The pathogens were Rhizopus sp., Aspergillus, Colletotrichum gloeosporioides Penz, Banana Fusarium wilt, Colletouichum coccodes, Hughas, B. heveas, Cucumber mosaic virusstrain banana, Banana Sigatoka Leaf Spot Disease, Colletotrichum gloeosporioides, Colletotrichum musae (Berk & Curt) Arx, Botryodiplodia theobromae, Cladosporium cucumerinum Ellis et Arthur, Periconia hevenae, Colletotrichum gloeosporioides, B. cinerea, Diplodia natalensis, and Curvularia.

[3] = system: Colletouichum coccodes. Hughas; assay: as above; format: cell-based
Method: as §2, §3, §4

Periconia hevenae = assay: as above; format: cell-based
Method: as §2, §3, §4

[4] = system: Colletotrichum musae (Berk & Curt) Arx; assay: as above; format: cell-based
Method: as §2, §3, §4

[5] = system: Mice Polychromatic Erythrocytes; assay: Micronucleus Test of Mice Polychromatic Erythrocytes; format: in vivo
Method: as §1

Ustilaginoidea virens = assay: microbe, parasite or virus in culture; format: cell-based
rat = assay: Acute oral test; format: in vivo; settings: rat
Method: as §1

Acute oral test = format: in vivo, rat; settings: in vivo
Method: as §1

[6] = system: Cucumber sclerotinia rot (strain HGJH); assay: In vivo micro-screening assay
Method: as §6
(§9) Cucumber scab strain: HX; cucumber brown spot strain: SDHGHB060509; cucumber sclerotinia rot strain: HGJH; pepper phytophthora blight strain: NSGP; and rice sheath blight strain: WK-1.
as §7, §8

[7] = system: Rhizoctonia solani (wheat sheath blight); assay: microbe, parasite or virus in culture; format: cell-based; settings: read-out: Inhibition rate (%)
[8] = system: Cucumber scab (strain HX); assay: In vivo micro-screening assay
Method: as §6, §9, §7, §8

[9] = molecular target: succinate-cytochrome C oxidase (SCO) (Sus scrofa, UniProt P24964); assay: Enzyme activity test, SCO; format: biochemical; settings: azoxystrobin as control agent
Method: (§5) Take NADH oxidase (NOX), succinate-cytochrome C oxidase (SCO), and Complex III as target enzymes, the inhibitory activity of the compound of Formula (I) was tested.
^a NOX is generally used to detect an inhibitor of Complex I and Complex III; SCO is generally used to detect an inhibitor of Complex II and Complex III. Thus, an inhibitor of Complex III should have inhibitory activity on the two enzymes.

[10] = system: Colletotrichum lagenarium; assay: microbe, parasite or virus in culture; format: cell-based; settings: Colletotrichum orbiculare, read-out: Inhibition rate (%)
[11] = system: Rhizoctonia solani (rice sheath blight); assay: microbe, parasite or virus in culture; format: cell-based; settings: read-out: Inhibition rate (%)
[12] = molecular target: T1, cytochrome bc1 complex of pig heart (Sus scrofa, UniProt P24964); assay: Enzyme activity test, Complex III; format: biochemical
T1 construct: The test target is cytochrome bc1 complex of pig heart; from tissue; host or cells: pig heart
Method: as §5
^b The test target is cytochrome bc1 complex of pig heart.

Phytophthora capsici = assay: microbe, parasite or virus in culture; format: cell-based; settings: read-out: Inhibition rate (%)
Sclerotinia sclerotirum = assay: microbe, parasite or virus in culture; format: cell-based; settings: read-out: Inhibition rate (%)
[13] = 0.1 mg/L, read-out: Inhibition rate (%)
[14] = 1 mg/L, read-out: Inhibition rate (%)
[15] = 5 mg/L, read-out: Inhibition rate (%)
[16] = 10 mg/L, read-out: Inhibition rate (%)
[17] = 25 mg/L, read-out: Inhibition rate (%)
[18] = 15 mg/L, read-out: Inhibition rate (%)

T1 sequence (P24964 whole entry, one chain of several): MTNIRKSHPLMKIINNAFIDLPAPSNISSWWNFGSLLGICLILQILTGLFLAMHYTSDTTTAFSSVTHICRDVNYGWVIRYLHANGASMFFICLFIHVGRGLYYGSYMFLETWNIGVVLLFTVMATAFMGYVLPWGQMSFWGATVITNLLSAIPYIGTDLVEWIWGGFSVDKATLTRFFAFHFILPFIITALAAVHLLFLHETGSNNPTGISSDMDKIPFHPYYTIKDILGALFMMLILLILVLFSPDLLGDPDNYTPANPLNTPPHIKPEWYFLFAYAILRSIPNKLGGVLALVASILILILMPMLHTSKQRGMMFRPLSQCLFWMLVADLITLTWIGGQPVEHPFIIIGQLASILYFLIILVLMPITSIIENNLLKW
Chain of succinate-cytochrome C oxidase (SCO) (P24964 whole entry): as the sequence (P24964 whole entry, one chain of several) above

**Q.** Which “prevention and treatment effect” value [1] does the source give for CO/C=C(/C(=O)OC)c1ccccc1CSc1nc2cc(OC)ccc2s1 [Compound of Formula (I), (E)-methyl 3-methoxy-2-(2-((5-methoxy-benzothiazol-2-ylthio)methyl)phenyl)acrylate] here?
**A.** good prevention and treatment effect

**Q.** And the Disease index ([1]; 100 mg/L)?
**A.** 6.11

**Q.** What about the “Efficacy (%)” value ([1]; 100 mg/L) of the same compound?
**A.** 85.00%

**Q.** What about the Disease index ([1]; 500 mg/L) of the same compound?
**A.** 4.44

**Q.** What about the “Efficacy (%)” value ([1]; 500 mg/L) of the same compound?
**A.** 89.10%

**Q.** And the Skin sensitization (guinea pig skin)?
**A.** Weak allergen (grade I) on guinea

**Q.** And the “Efficacy (%)” value ([2]; 100 mg/L)?
**A.** 88.71%

**Q.** What about the “Spot area (mm^2)” value ([2]; 100 mg/L) of the same compound?
**A.** 6.82 mm^2

**Q.** What about the “Efficacy (%)” value ([2]; 500 mg/L) of the same compound?
**A.** 90.67%

**Q.** What about the “Spot area (mm^2)” value ([2]; 500 mg/L) of the same compound?
**A.** 5.64 mm^2

**Q.** What about the EC50 (Aspergillus) of the same compound?
**A.** 5.03 µg/mL

**Q.** And the inhibition at 0.1 µg/mL (Aspergillus; [13])?
**A.** 10.6%

**Q.** What about the inhibition at 1 µg/mL (Aspergillus; [14]) of the same compound?
**A.** 27.4%

**Q.** What about the inhibition at 5 µg/mL (Aspergillus; [15]) of the same compound?
**A.** 47.8%

**Q.** And the inhibition at 10 µg/mL (Aspergillus; [16])?
**A.** 58.4%

**Q.** And the inhibition at 25 µg/mL (Aspergillus; [17])?
**A.** 71.4%

**Q.** What about the inhibition at 50 µg/mL (Aspergillus; 50 mg/L, read-out: Inhibition rate (%)) of the same compound?
**A.** 86.1%

**Q.** What about the EC50 [3] of the same compound?
**A.** 7.13 µg/mL

**Q.** What about the inhibition at 0.1 µg/mL [3, 13] of the same compound?
**A.** 10.1%

**Q.** And the inhibition at 2 µg/mL ([3]; 2 mg/L, read-out: Inhibition rate (%))?
**A.** 22.3%

**Q.** And the inhibition at 5 µg/mL [3, 15]?
**A.** 42.1%

**Q.** And the inhibition at 15 µg/mL [3, 18]?
**A.** 61.3%

**Q.** And the inhibition at 25 µg/mL [3, 17]?
**A.** 83.5%

**Q.** And the EC50 (Periconia hevenae)?
**A.** 0.378 µg/mL

**Q.** And the inhibition at 0.1 µg/mL (Periconia hevenae; [13])?
**A.** 33.2%

**Q.** What about the inhibition at 1 µg/mL (Periconia hevenae; [14]) of the same compound?
**A.** 66.4%

**Q.** And the inhibition at 5 µg/mL (Periconia hevenae; [15])?
**A.** 74.2%

**Q.** And the inhibition at 10 µg/mL (Periconia hevenae; [16])?
**A.** 77.6%

**Q.** And the inhibition at 15 µg/mL (Periconia hevenae; [18])?
**A.** 81.7%

**Q.** What about the EC50 [4] of the same compound?
**A.** 1.66 µg/mL

**Q.** What about the inhibition at 0.1 µg/mL [4, 13] of the same compound?
**A.** 19.1%

**Q.** And the inhibition at 1 µg/mL [4, 14]?
**A.** 37.2%

**Q.** What about the inhibition at 5 µg/mL [4, 15] of the same compound?
**A.** 64.5%

**Q.** What about the inhibition at 10 µg/mL [4, 16] of the same compound?
**A.** 78.7%

**Q.** And the inhibition at 20 µg/mL ([4]; 20 mg/L, read-out: Inhibition rate (%))?
**A.** 85.8%

**Q.** What about the “Micronucleus Test of Mice Polychromatic Erythrocytes” value [5] of the same compound?
**A.** Negative

**Q.** What about the “in vitro effect” value (Ustilaginoidea virens) of the same compound?
**A.** particularly effective

**Q.** And the inhibition at 0.3 µg/mL (Ustilaginoidea virens; Ustilaginoidea virens, 0.3 mg/L, read-out: Inhibition rate (%))?
**A.** 74.8%

**Q.** What about the inhibition at 3 µg/mL (Ustilaginoidea virens; Ustilaginoidea virens, 3 mg/L, read-out: Inhibition rate (%)) of the same compound?
**A.** 100%

**Q.** What about the inhibition at 30 µg/mL (Ustilaginoidea virens; Ustilaginoidea virens, 30 mg/L, read-out: Inhibition rate (%)) of the same compound?
**A.** 100%

**Q.** What about the “Toxicity (acute oral test)” value (rat) of the same compound?
**A.** Low toxicity

**Q.** And the LD50 (Acute oral test; Female rat)?
**A.** > 5000 mg/kg

**Q.** And the LD50 (Acute oral test; Male rat)?
**A.** > 5000 mg/kg

**Q.** What about the “Efficacy (%)” value ([6]; 100 mg/L) of the same compound?
**A.** 16.84%

**Q.** What about the “Spot area (mm^2)” value ([6]; 100 mg/L) of the same compound?
**A.** 70.08 mm^2

**Q.** And the “Efficacy (%)” value ([6]; 500 mg/L)?
**A.** 58.88%

**Q.** And the “Spot area (mm^2)” value ([6]; 500 mg/L)?
**A.** 34.65 mm^2

**Q.** What about the inhibition at 0.3 µg/mL ([7]; 0.3 mg/L) of the same compound?
**A.** 22.2%

**Q.** And the inhibition at 3 µg/mL ([7]; 3 mg/L)?
**A.** 44.4%

**Q.** And the inhibition at 30 µg/mL ([7]; 30 mg/L)?
**A.** 68.5%

**Q.** And the “prevention and treatment effect” value [8]?
**A.** good prevention and treatment effect

**Q.** And the Disease index ([8]; 100 mg/L)?
**A.** 0

**Q.** What about the “Efficacy (%)” value ([8]; 100 mg/L) of the same compound?
**A.** 100.00%

**Q.** What about the Disease index ([8]; 500 mg/L) of the same compound?
**A.** 0

**Q.** What about the “Efficacy (%)” value ([8]; 500 mg/L) of the same compound?
**A.** 100.00%

**Q.** What about the “inhibitory activity on SCO compared with azoxystrobin” value [9] of the same compound?
**A.** much higher inhibitory activity

**Q.** And the inhibition at 0.3 µg/mL ([10]; 0.3 mg/L)?
**A.** 42%

**Q.** What about the inhibition at 3 µg/mL ([10]; 3 mg/L) of the same compound?
**A.** 44.2%

**Q.** What about the inhibition at 30 µg/mL ([10]; 30 mg/L) of the same compound?
**A.** 50.7%

**Q.** What about the inhibition at 0.3 µg/mL ([11]; 0.3 mg/L) of the same compound?
**A.** 42.7%

**Q.** And the inhibition at 3 µg/mL ([11]; 3 mg/L)?
**A.** 62.1%

**Q.** And the inhibition at 30 µg/mL ([11]; 30 mg/L)?
**A.** 68.9%

**Q.** What about the IC50 [12] of the same compound?
**A.** 4 nM

**Q.** And the “inhibitory activity on Complex III compared with azoxystrobin” value ([12]; azoxystrobin as control agent)?
**A.** much higher inhibitory activity

**Q.** What about the inhibition at 0.3 µg/mL (Phytophthora capsici; 0.3 mg/L) of the same compound?
**A.** 0%

**Q.** And the inhibition at 3 µg/mL (Phytophthora capsici; 3 mg/L)?
**A.** 23.1%

**Q.** And the inhibition at 30 µg/mL (Phytophthora capsici; 30 mg/L)?
**A.** 28.9%

**Q.** What about the inhibition at 0.3 µg/mL (Sclerotinia sclerotirum; 0.3 mg/L) of the same compound?
**A.** 50.8%

**Q.** And the inhibition at 3 µg/mL (Sclerotinia sclerotirum; 3 mg/L)?
**A.** 61%

**Q.** And the inhibition at 30 µg/mL (Sclerotinia sclerotirum; 30 mg/L)?
**A.** 80%
